The source of these data is ChEMBL document CHEMBL3856213, “neo-Clerodane diterpenoids from Scutellaria barbata mediated inhibition of P-glycoprotein in MCF-7/ADR cells” (Eur J Med Chem, 2016).

SMILES strings stand for the structures. Activity calls are given as the source filed them. No cut-off for these calls is given here.

Assay [1] in a line: Cytotoxicity against human MCF7 cells assessed as inhibition of cell survival rate at 50 uM after 48 hrs by MTT assay relative to control. It is filed as functional. The note with it: MCF7, 48 h.
The subject of assay [2] is NCI/ADR-RES. The assay can be described thus: Inhibition of P-gp in human MCF7/ADR cells assessed as potentiation of adriamycin-induced cytotoxic activity at 20 uM after 48 hrs by MTT assay relative to control. The format is cell-based. In general terms: Formazan colour is commonly taken as a measure of viable cells.
Assay [3] deals with NCI/ADR-RES. The assay can be described thus: Inhibition of P-gp in human MCF7/ADR cells assessed as increase in intracellular adriamycin accumulation at 10 uM after 3 hrs by flow cytometry relative to control. The format is cell-based. On the technique in general: Flow cytometry measures light scatter and fluorescence of single cells or particles in a stream.
In assay [4] the test system is NCI/ADR-RES. The assay can be described thus: Inhibition of P-gp in human MCF7/ADR cells assessed as increase in intracellular adriamycin accumulation at 20 uM after 3 hrs by flow cytometry. It is filed as cell-based.
In assay [5] the test system is NCI/ADR-RES. The assay can be described thus: Inhibition of P-gp in human MCF7/ADR cells assessed as potentiation of adriamycin-induced cell death by measuring dead cell levels at 20 uM after 48 hrs by 7-AAD staining-based flow cytometry (reference value: 8.1%). Also on record: scale not given: the % may be the effect or the level left.
For assay [6], the system named is NCI/ADR-RES. The assay can be described thus: Inhibition of P-gp in human MCF7/ADR cells assessed as increase in intracellular rhodamine123 accumulation at 10 to 20 uM incubated for 4 hrs in dark condition by flow cytometry. It is filed as cell-based.
In assay [7] the test system is NCI/ADR-RES. The assay can be described thus: Inhibition of P-gp in human MCF7/ADR cells assessed as potentiation of adriamycin-induced cell death by measuring dead cell levels at 10 uM after 48 hrs by 7-AAD staining-based flow cytometry. Details: scale not given: the % may be the effect or the level left.
Assay [8] has as its system NCI/ADR-RES. As to the kind of experiment: Inhibition of P-gp in human MCF7/ADR cells assessed as increase in intracellular adriamycin accumulation at 10 uM after 3 hrs by flow cytometry relative to verapamil. The format is cell-based.
The test system of assay [9] is NCI/ADR-RES. As to the kind of experiment: Inhibition of P-gp in human MCF7/ADR cells assessed as increase in intracellular adriamycin accumulation at 20 uM after 3 hrs by flow cytometry relative to verapamil. The format is cell-based.
Assay [10] concerns NCI/ADR-RES. The assay can be described thus: Inhibition of P-gp in human MCF7/ADR cells assessed as increase in intracellular adriamycin accumulation at 10 to 20 uM after 4 hrs by fluorescence microscopic analysis. It is filed as cell-based.
The nature of assay [11]: Downregulation of P-gp expression in human MCF7/ADR cells at 10 uM after 36 hrs by Western blot method relative to control. It is filed as functional, cell-based. The note with it: NCI/ADR-RES. Background: Immunoblotting shows a protein as a band on a membrane.
Assay [12] can be described thus: Downregulation of P-gp expression in human MCF7/ADR cells at 20 uM after 36 hrs by Western blot method relative to control. It is filed as functional, cell-based. The note with it: NCI/ADR-RES.
A short description of assay [13]: Cytotoxicity against human MCF7 cells assessed as inhibition of cell survival rate after 48 hrs by MTT assay. It is filed as functional, cell-based. The note with it: MCF7, 48 h.
Assay [14] in a line: Cytotoxicity against human MCF7/ADR cells assessed as inhibition of cell survival rate after 48 hrs by MTT assay. It is filed as functional, cell-based. The note with it: NCI/ADR-RES.
Assay [15] deals with NCI/ADR-RES. As to the kind of experiment: Reversal index, ratio of IC50 for human MCF7/ADR cells to IC50 for human MCF7 cells. It is filed as functional.

On to `CC1=CC[C@@H](OC(=O)c2cccnc2)[C@H]2[C@@]1(C)[C@@H](OC(=O)c1cccnc1)[C@H](OC(=O)c1ccccc1)[C@]1(C)O[C@]3(CC[C@]21C)COC(=O)C3`, for which the inhibition – broadly, the percentage by which the read-out fell short of the control – at 50 µM in assay [1] was 13.6%. Further, the fold change (FC) in the assay with NCI/ADR-RES [2] came out at 45.3; with NCI/ADR-RES [3], 2.89; in the assay with NCI/ADR-RES [8] it was 1.5; in the assay on NCI/ADR-RES [9], 1.8. The inhibition result in the assay on NCI/ADR-RES [4], with NCI/ADR-RES [6] and with NCI/ADR-RES [10] was “Active” in each case. The Activity in the assay with NCI/ADR-RES [5] was determined as 89.2%; in the assay on NCI/ADR-RES [7], 74.7%; in assay [11], 27%; in assay [12], 32%.
Take `CC[C@]1(O)C[C@H]2CN(CCc3c([nH]c4ccccc34)[C@@](C(=O)OC)(c3cc4c(cc3OC)N(C=O)[C@H]3[C@@](O)(C(=O)OC)[C@H](OC(C)=O)[C@]5(CC)C=CCN6CC[C@]43[C@@H]65)C2)C1` [VINCRISTINE]: the IC50 (as a rule, the point on the concentration scale where inhibition reaches its midpoint) in assay [13] came out at 1.3 µM; in [14], 62.8 µM. In the assay on NCI/ADR-RES [15], the “Ratio IC50” value came out at 48.3.
On to `COc1ccc(CCN(C)CCCC(C#N)(c2ccc(OC)c(OC)c2)C(C)C)cc1OC` (centres undefined), for which the values for the fold change (FC) with NCI/ADR-RES [2] and in the assay with NCI/ADR-RES [3] were 20.4 and 2.1, respectively. Also, the Activity in the assay on NCI/ADR-RES [7] was determined as 46.7%.
As for `CC(=O)O[C@@]12CO[C@@H]1C[C@H](O)[C@@]1(C)C(=O)[C@H](O)C3=C(C)[C@@H](OC(=O)[C@H](O)[C@@H](NC(=O)OC(C)(C)C)c4ccccc4)C[C@@](O)([C@@H](OC(=O)c4ccccc4)[C@H]21)C3(C)C` [DOCETAXEL ANHYDROUS], the IC50 in assay [13] was found to be 0.8 µM; in assay [14] it was 21.2 µM. Also, the “Ratio IC50” value in the assay on NCI/ADR-RES [15] is listed as 26.5.
The like results for `COc1cccc2c1C(=O)c1c(O)c3c(c(O)c1C2=O)C[C@@](O)(C(=O)CO)C[C@@H]3O[C@H]1C[C@H](N)[C@H](O)[C@H](C)O1.Cl` [DOXORUBICIN HYDROCHLORIDE] were, in that order, 1 µM, 58.8 µM and 58.8.
As to `CC(=O)O[C@H]1[C@H](OC(=O)c2cccnc2)[C@@]2(C)C(C)=CC[C@@H](OC(=O)c3cccnc3)[C@@H]2[C@@]2(C)CC[C@]3(COC(=O)C3)O[C@@]12C`, in assay [1], the inhibition at 50 µM is 28.5%. For the same compound, the fold change (FC) in the assay with NCI/ADR-RES [2] amounted to 16.7. For the same compound, the inhibition result in the assay with NCI/ADR-RES [3], in the assay with NCI/ADR-RES [4] and in the assay on NCI/ADR-RES [6] was “Active” in each case.
